Assay results from PubChem BioAssay (NCI).
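1) Cells in 96-well plates. 2) Compound, 48 h, 5 concentrations. 3) Linear interpolation between surrounding doses. 4) Unreached endpoint = highest concentration. Abbreviation: GI50, concentration required for 50% inhibition of growth. TGI is the concentration that stops growth completely.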

What was measured:
Assay in all cases: NCI tumour cell line growth inhibition, 48 h
K-562 leukemia = tested on: K-562 leukemia
KM12 colon = tested on: KM12 colon
MCF7 breast = tested on: MCF7 breast
NCI-H226 lung = tested on: NCI-H226 lung
OVCAR-5 ovarian = tested on: OVCAR-5 ovarian
RPMI-8226 leukemia = tested on: RPMI-8226 leukemia
SF-268 CNS = tested on: SF-268 CNS
SK-MEL-2 melanoma = tested on: SK-MEL-2 melanoma
SN12C renal = tested on: SN12C renal
UACC-257 melanoma = tested on: UACC-257 melanoma

Row | SMILES | GI50 (K-562 leukemia) [µM] | TGI (K-562 leukemia) [µM] | GI50 (KM12 colon) [µM] | TGI (KM12 colon) [µM] | GI50 (MCF7 breast) [µM] | TGI (MCF7 breast) [µM] | GI50 (NCI-H226 lung) [µM] | TGI (NCI-H226 lung) [µM] | GI50 (OVCAR-5 ovarian) [µM] | TGI (OVCAR-5 ovarian) [µM] | GI50 (RPMI-8226 leukemia) [µM] | TGI (RPMI-8226 leukemia) [µM] | GI50 (SF-268 CNS) [µM] | TGI (SF-268 CNS) [µM] | GI50 (SK-MEL-2 melanoma) [µM] | TGI (SK-MEL-2 melanoma) [µM] | GI50 (SN12C renal) [µM] | TGI (SN12C renal) [µM] | GI50 (UACC-257 melanoma) [µM] | TGI (UACC-257 melanoma) [µM]
1 | COc1ccc(-c2nc3sccn3c2-c2ccnc(NCCNS(=O)(=O)c3ccc(C(F)(F)F)cc3)n2)cc1 | 0.411 | > 100 | 1.36 | 36.2 | 3.15 | > 100 | 2.42 | 10.3 | 9.38 | > 100 | 0.626 | 5.53 | 1.41 | 50.9 | 3.04 | 9.26 | 0.688 | 8.38 | 4.41 | > 100
2 | Cc1ccc2ncnc(N(C)C3CCCCC3)c2c1 | 13.5 | 94.4 | 35.6 | > 100 | 41.3 | > 100 | 18.7 | 58.4 | 41.2 | > 100 | 6.11 | 28.7 | 23.7 | 89.8 | 37.5 | > 100 | 39.6 | > 100 |  | 
3 | Nc1c(C(=O)Nc2cccc(Cl)c2)sc2nc3c(cc12)C(O)CCC3 (stereo not given) | 0.207 | 22.9 | 0.397 | > 49.9 | 0.344 | 53.4 | 2.68 | 38.1 | 2.89 | 33.9 | 0.36 | 5.01 | 0.754 | 39.1 | 0.585 | 48.6 | 0.773 | > 100 |  | 
4 | CC(=O)OC(COc1ccc2c(c1)[n+]([O-])nc(N)[n+]2[O-])CN1CCCCC1 (stereo not given) |  | 38.5 |  | 50.4 |  | 65.8 |  | 54 |  | 61.2 |  | 25.8 |  |  |  | 26.4 |  | 40.3 |  | 29.1
5 | COc1ccc2nc3cc([N+](=O)[O-])ccc3c(NCCO)c2c1 | 1.22 | 3.85 | 2.17 | 6.8 | 1.11 | 4.17 | 3.67 | 14.7 | 5.55 | 28.1 | 1.39 | 7.16 | 1.15 | 11.5 |  |  | 2.51 | 30.8 | 2.61 | 7.68
6 | COC(=O)C1c2cc3c(c(O)c2CCC1(C)O)C(=O)c1c(O)cc2c(c1C3=O)OC1OC2(C)C(O)C(N(C)C)C1O (stereo not given) |  | 1.03 |  | 1.52 |  | 2.5 |  | 0.45 |  | 1.03 |  |  |  | 11.1 |  | 18.8 |  | 3.84 |  | 0.739
7 | CC1(C)CC[C@]23CC[C@]4(C)[C@H](CC[C@@H]5[C@@]6(C)CCCNC(C)(C)[C@@H]6CC[C@]54C)[C@H]2[C@H]1OC3 | 1.96 | 7 |  |  | 1.44 | 3.01 | 1.7 | 3.47 | 1.6 | 3.04 | 1.94 | 4.58 | 2.04 | 5.31 | 1.95 | 4.09 | 1.68 | 3.2 | 1.92 | 3.87
